Assay [1] deals with cultured osteoblastic cells. As to the kind of experiment: osteoblast proliferation (mitogenic/osteogenic effect). Type of assay: cell-based, rat, mouse, and human. The method, then: Osteoblasts were isolated from 20-day old fetal rat calvariae as previously described (Cornish et al. (1999) Amer. J. Physiol-Endocrinol. Metab. 277:E779–E783). Briefly, calvariae were excised and the frontal and parietal bones, free of suture and periosteal tissue, were collected. After washing, the calvariae were treated twice with 3 mL of 1 mg/mL collagenase for 7 minutes at 37° C. After discarding the supernatants from these two digestions, the calvariae were treated a further twice with 3 mL of 2 mg/mL collagenase (30 mins, 37° C.). The supernatants of the latter two digestions were pooled, centrifuged, and the cells washed. Cells were grown to confluence and then subcultured into 24 well plates. Cells were growth arrested in minimum essential medium (MEM)/0.1% bovine serum albumin for 24 h before harvest.
The human osteoblast-like osteosarcoma cell line SaOS-2 was maintained in DMEM (GIBCO 12100-046) supplemented with 2.2 g/L NaHCO3, 10% FBS, and 10 ml/L penicillin-streptomycin (GIBCO 15140-122). Cells were plated in 75 cm^2 flasks and when confluent used for total RNA isolation or proliferation assays.

Assay [2] relates to bacterial. The following applies: cited from earlier work.

Data on two substances can be found in patent US7169559B2, “LDL receptor-related proteins 1 and 2 and treatment of bone or cartilage conditions” (Fonterra Corporate Research and Development Ltd., priority 2002, dated 2007).

For the substance Lactoferricin, the “osteogenic effect / osteogenic activity” value in assay [1] is “only a modest osteogenic effect”. Besides, in assay [2], the bacterial killing entry was “effective in bacterial killing”. As for “Transferrin: Transferrin, compared with lactoferrin as mitogen on osteoblasts [reference compound]”, the “mitogenic effect on osteoblasts” value in assay [1] is “not a potent mitogen”.
